Test results reported in patent US12053465B2, “KCC2 expression enhancing compounds and uses thereof” (Whitehead Institute for Biomedical Research, priority 2017, dated 2024).
Where a SMILES comes first, the peptide text is derived from it. [ ]: non-standard residue; d: D form. The star is where a group is joined. Sta = CC(C)C[C@H](N)[C@@H](O)CC(=O)O; Isovaleryl = CC(C)CC(=O)*

System: KCC2 expression (KCC2-2A-luciferase reporter)
Test: KCC2-2A-luciferase reporter compound screening with wild type KCC2 reporter neurons
Assay type: cell-based
Settings: WT human KCC2 reporter neurons; LINCS 0.5 μM, IRSF/SMART and ICCB 10 μM, one week; Luc/CTG normalized to in-plate DMSO; hit = B score >3
Description: In addition, CRISPR/Cas9 genome editing technology was utilized to insert a 2A-luciferase reporter gene directly before the stop codon of the endogenous KCC2 locus in human ES cells, thus creating wild type (WT) cells isogenic to the MECP2-null RTT human KCC2 reporter neurons. KCC2 expression reporter human neurons were differentiated from the gene-targeted ES cells and utilized as the substrate for unbiased compound screening (FIG. 6A; see also FIG. 1A).
Gene-targeted KCC2 reporter cells were used in a HTS pipeline to screen for small molecule compounds that enhance KCC2 gene expression (FIG. 1B; note that reporter neurons were adapted to 384 well format for some screens, and the same workflow was used both for WT KCC2 reporter neurons and RTT KCC2 reporter neurons). Six replicate screens were performed in WT KCC2 reporter neurons using the LINCS and SMART libraries as well as the ICCB known bioactive library (FIG. 6B).
(§1) The cells were dissociated with Accutase, resuspended in 10 ml neuronal differentiation medium to count cells. the final cell seeding density was 20 k-40 k cells per well for 96-well plates, and ˜10 k cells per well for 384-well plates. Matrigel was added to the cell suspension at a dilution ratio of 1:300 to promote cell adhesion after plating. AraC were added to the cell suspension at the concentration of 0.5 μM to inhibit astroglial cell division. The cells were dispensed into 96-well or 384-well plates (Coming) using a BioTek EL406 plate dispenser. […] The neurons were incubated with the compounds at 37° C./5% CO2 for a week before the luciferase assay.
For some screens, on the day of the luciferase assay, the cells were washed with PBS three times using a BioTek EL406 plate washer. Cell lysis buffer (Promega, E1941, 1:5 diluted with water) was added at a volume of 100 μl per well for 96-well plates and 30 μl per well for 384-well plates, and incubated at room temperature for 10 minutes to lyse the cells. A fraction of the cell lysate (30 ul for 96-well, 5 ul for 384-well) was transferred to a new white, opaque plate and Cell Titer-Glo (CTG, Promega, G7572, diluted 2:5 in water) was added and incubated for 20 minutes at room temperature. CTG measures cellular ATP levels as a surrogate for cell viability. The reporter luciferase signal was assayed in the original source plate using Bright-Glo reagent per the manufacturer's protocol (Promega, E1501, 10 ul for 96-well plates, 3 ul for 384-well plates). Assay readouts were performed on a Tecan M1000 Infinite plate reader. For data analysis, the luciferase signal was normalized to the CTG signal to control for number of live cells per well. The Luc/CTG ratio data were then normalized to the in-plate DMSO control to calculate the signal induction fold change. Screening data were processed with CellHTS2 software package to calculate B-score (94)

Going from C[C@H](NCc1ccc(OCc2cccc(F)c2)cc1)C(N)=O [Safinamide, (2S)-2-[[4-[(3-fluorophenyl)methoxy]phenyl]methylamino] propanamide] to CN(C)c1ccc(C=C2C(=O)Nc3ccccc32)cc1 [SU-4312, 3-(4-Dimethylaminobenzylidenyl)-2-indolinone], the “B Score” value falls from 4.82 to 3.55.

First: O=c1cc(-c2ccccc2)oc2c(O)c(O)ccc12 [7,8-Dihydroxyflavone]
Second: CC(C)(O)[C@H]1O[C@H]2CC[C@@]3(C)[C@@](O)(CC[C@H]4Cc5c([nH]c6ccccc56)[C@@]43C)C2=CC1=O [Paxilline, (2R,4bS,6aS,12bS,12cR,14aS)-5,6,6a,7,12,12b,12c,13,14,14a-Decahydro-4b-hydroxy-2-(1-hydroxy-1-methylethyl)-12b,12c-dimethyl-2H-pyrano[2″,3″:5',6']benz[1',2':6,7]indeno[1,2-b]indol-3(4bH)-one]
The “B Score” value of the first is lower: 4.01 for the first, 4.1 for the second.

For Cc1nc2n(c(=O)c1CCN1CCC(c3noc4cc(F)ccc34)CC1)CCCC2O (stereo not shown) [Paliperidone, 9-Hydroxyrisperidone], the “B Score” value was 11.03.

System: KCC2 expression (KCC2-2A-luciferase reporter)
Test: KCC2-2A-luciferase reporter compound screening with RTT KCC2 reporter neurons
Assay type: cell-based, human
Settings: MECP2-null RTT human KCC2 reporter neurons; LINCS, SMART, ICCB libraries; Luc/CTG normalized to in-plate DMSO; hit = B score >3
Procedure: The RTT KCC2-2A-luciferase reporter neurons were treated with the test compounds from the LINCS kinase inhibitor library and IRSF SMART compound library and incubated before being lysed. The cell lysate was divided into two parts to measure luciferase signal (KCC2 translation) and Cell-Titer Glow (CTG, amount of ATP). The luciferase signal was normalized to CTG for each well, and the Luc/CTG ratio was normalized to the in-plate DMSO negative control to calculate fold change ratio.
Additional screens for reporter activation in the MECP2-null RTT human KCC2 reporter neurons (isogenic to the WT reporter cells used above) were performed with the LINCS and SMART libraries as well as the ICCB known bioactive library and identified hits as compounds with B score >3.
The cells were dissociated with Accutase and resuspended in 10 ml neuronal differentiation medium to count cells. The cells were then diluted to the final density of 200,000 to 500,000 cells/ml. Matrigel was added to the cell suspension at a dilution ratio of 1:300 to promote cell adhesion after plating. AraC was added to cell suspension at the concentration of 2 μM to inhibit cell division. The cells were plated into 96-well plates with an automated cell seeding machine using the following protocol: The neuron flask was washed with PBS. The neurons were digested off the plate with Accutase for 30 minutes at 37° C. Next, the dissociated cells were collected and spun down at 750 rpm for 5 minutes. The cell pellet was dissociated by gentle trituration with P1000 pipet and the cells were resuspended with 10 ml of neuronal medium. Then, the cells were filtered through a 40 μm cell strainer (Falcon) to get rid of clumps. The resulting single-cell suspension was counted using a Countess automated cell counter (Invitrogen Countess Automated Cell Counter, Catalog no. C10227). The neurons were resuspended with neuronal medium to 10× of the destination density (100,000 cells to 400,000 cells per ml). The cells were plated with a multichannel pipette, or proceeded to the machine-plating protocol described below:
The day after cell seeding, small molecule compounds from the IRSF (International Rett Syndrome Foundation) library were prepared at a concentration of 1 mM and dispensed into a blank V-bottomed test plates at 2 μl per well. Compound solvent DMSO was included in every plate as control. Using a liquid handling robot, about 80 μl of culture medium were discarded. Neuronal medium in the volume of 200 μl was added to the V-bottom test plate that contained 2 μl of 1 mM compounds, and mixed with compounds by pipetting up-and-down 3 times. The medium that contained the 10 μM compounds was then applied to the neuronal cell culture and incubated for 2 weeks before cell lysis and luciferase assay were performed.
as §1
The cells used for luciferase assay were KCC2 reporter neurons differentiated for 4 weeks, and treated with drug in 96-well format for 2 weeks. Cell density was between 20 k-40 k cells per well.
On the day of the luciferase assay, the cells were washed with PBS for two times, and 100 μl of cell lysis buffer was applied to the washed cells. The cell plates were transferred to a rocker to shake for 10 minutes in order to fully lyse the cells.

First: C[C@H](NCc1ccc(OCc2cccc(F)c2)cc1)C(N)=O [Safinamide, (2S)-2-[[4-[(3-fluorophenyl)methoxy]phenyl]methylamino] propanamide]
Second: COc1ccc(CNC(=O)Nc2ncc([N+](=O)[O-])s2)cc1 [AR-AO14418, N-(4-Methoxybenzyl)-N'-(5-nitro-1,3-thiazol-2-yl)urea]
The “B Score” value of the first is lower: 4.82 for the first, 8.69 for the second.

First: O=c1cc(-c2ccccc2)oc2c(O)c(O)ccc12 [7,8-Dihydroxyflavone]
Second: O=C(O)c1cccc(-c2noc(-c3ccccc3F)n2)c1 [Ataluren, 3-[5-(2-Fluorophenyl)-1,2,4-oxadiazol-3-yl]benzoic acid]
The “B Score” value of the first is lower: 4.01 for the first, 7.43 for the second.

Compared with O=c1c(O)c(-c2ccc(O)cc2)oc2cc(O)cc(O)c12 [Kaempferol, 3,5,7-Trihydroxy-2-(4-hydroxyphenyl)-4H-chromen-4-one], O=c1c(O)c(-c2ccc(O)c(O)c2)oc2cc(O)cc(O)c12 [Quercetin-2H2O, 2-(3,4-dihydroxyphenyl)-3,5,7-trihydroxy-4H-chromen-4-one] is higher in “B Score” value: 3.92 for the first, 7.76 for the second.

Compared with O=C(Nc1ccc(OC(F)(F)F)cc1)c1sccc1NCc1ccnc2ccccc12 [OSI-930, 3-[(4-quinolinylmethyl)amino]-N-[4-(trifluoromethoxy)phenyl]-2-thiophenecarboxamide], CCOc1ccn(-c2ccc(F)cc2)c(=O)c1C(=O)Nc1ccc(Oc2ccnc(N)c2Cl)c(F)c1 [BMS 777607, N-(4-(2-amino-3-chloropyridin-4-yloxy)-3-fluorophenyl)-4-ethoxy-1-(4-fluorophenyl)-2-oxo-1,2-dihydropyridine-3-carboxamide] is higher in “B Score” value: 5.55 for the first, 11.97 for the second.

First: CCC(C)C(CC)C(N)=O (stereo not shown) [Valnoctamide, 2-ethyl-3-methyl-pentanamide]
Second: NC[C@H](CC(=O)O)c1ccc(Cl)cc1 [(R)-Baclofen]
The “B Score” value of the first is higher: 14.99 for the first, 6.65 for the second.

Going from CC(C)(O)[C@H]1O[C@H]2CC[C@@]3(C)[C@@](O)(CC[C@H]4Cc5c([nH]c6ccccc56)[C@@]43C)C2=CC1=O [Paxilline, (2R,4bS,6aS,12bS,12cR,14aS)-5,6,6a,7,12,12b,12c,13,14,14a-Decahydro-4b-hydroxy-2-(1-hydroxy-1-methylethyl)-12b,12c-dimethyl-2H-pyrano[2″,3″:5',6']benz[1',2':6,7]indeno[1,2-b]indol-3(4bH)-one] to O=C1CCc2c(ccc3ccccc23)O1 [Splitomycin, 1,2-Dihydro-3H-naphtho[2,1-b]pyran-3-one], the “B Score” value rises from 4.1 to 9.79.

Compared with CC(C)CC(=O)N[C@H](C(=O)N[C@H](C(=O)N[C@@H](CC(C)C)[C@@H](O)CC(=O)N[C@@H](C)C(=O)N[C@@H](CC(C)C)[C@@H](O)CC(=O)O)C(C)C)C(C)C [Pepstatin, Isovalery-Val-Val-Sta-Ala-Sta] (Isovaleryl-VV[Sta]A[Sta]-OH), CC(C)[C@@H]1NC(=O)[C@H](C)OC(=O)[C@@H](C(C)C)NC(=O)[C@@H](C(C)C)OC(=O)[C@H](C(C)C)NC(=O)[C@H](C)OC(=O)[C@@H](C(C)C)NC(=O)[C@@H](C(C)C)OC(=O)[C@H](C(C)C)NC(=O)[C@H](C)OC(=O)[C@@H](C(C)C)NC(=O)[C@@H](C(C)C)OC1=O [Valinomycin, Cyclo-(L-Val-D-HyIva-D-Val-L-Lac-)3] is lower in “B Score” value: 8.64 for the first, 4.49 for the second.

Going from O=c1cc(-c2ccc(O)c(O)c2)oc2cc(O)cc(O)c12 [Luteolin, 2-(3,4-Dihydroxyphenyl)-5,7-dihydroxy-4-chromenone] to O=c1c(-c2ccc(O)cc2)coc2cc(O)cc(O)c12 [Genistein, 4',5,7-Trihydroxyisoflavone], the “B Score” value falls from 11.34 to 5.11.

With O=c1c(-c2ccc(O)cc2)coc2cc(O)ccc12 [Daidzein, 7-hydroxy-3-(4-hydroxyphenyl)-4H-chromen-4-one] the “B Score” value was 4.64.

System: KCC2 expression
Test: Western blot of KCC2 in cultured human RTT neurons
Assay type: cell-based
Settings: RTT neurons; additional application to Resveratrol
Procedure: Protein samples were collected from cultured brain slices or cultured neurons in 12-well format with RIPA lysis buffer (in mM: 150 NaCl, 25 Tris-HCl, 1 EDTA, 1% NP-40, 1% sodium deoxycholate, 0.1% SDS, with protein kinase inhibitor and protease inhibitor, pH adjusted to 7.6). A sonication step was applied to homogenize tissue and extract protein, followed by a 10 minute centrifugation at 4° C. […] The PVDF membrane was blocked for 30 minutes with 5% milk in TBS+0.1% Tween 20 (TBST), and incubated overnight at 4° C. with primary antibodies diluted in TBST-milk at the following concentrations: KCC2 (1:2000, Millipore), NKCC1 (1:1000, Iowa Hybridoma bank), α-Tubulin (1:4000, Abcam), GAPDH (1:3000, Abcam), Actin (1:2000, Sigma Aldrich #A2066). The membrane was rinsed with TBST three times to wash off excess antibodies, and then incubated in secondary HRP antibodies in TBST-milk at 1:5000 concentration.
The PVDF membrane was then stripped using the Re-blot plus strong solution (Millipore), and re-immunoblotted for NKCC1 (˜150 kDa) to acquire KCC2/NKCC1 ratio. The area and intensity of protein signal was determined using ImageJ. The relative KCC2 and NKCC1 expression were calculated by normalizing protein signal to GAPDH or Tubulin loading control.

With NC(=O)C1CCCc2c1[nH]c1ccc(Cl)cc21 (stereo not shown) [EX-527] the “effect on Resveratrol-induced KCC2 expression enhancement” value was “blocked KCC2 expression enhancement”.

Same assay, conditions: RTT neurons; co-application with Piperine

O=C(Nc1ccc(S(=O)(=O)C(F)(F)F)cc1)C1=CCN(c2ncccc2C(F)(F)F)CC1 [A784168] was tested, and the “effect on Piperine-induced KCC2 expression” value was “eliminated the KCC2-inducing effect of Piperine”.

Same assay, conditions: cultured human RTT neurons; Western blot

With COc1ccc(C(=O)Nc2sc3c(c2C(N)=O)CCC3)cc1OC [FLT3 Inhibitor-1, 2-(3,4-dimethoxybenzamido)-5,6-dihydro-4H-cyclopenta[b]thiophene-3-carboxamide] the KCC2 expression was “significant enhancement of KCC2 expression”.
